Here are results for four molecules from patent publication US20160168186A1, “Method of Treating Dengue Fever” (RIBOSCIENCE LLC, priority 2011, published 2016).

Broadly, the IC50 is the midpoint of a concentration-inhibition curve.

Series [1] concerns H241: dengue virus serotype 4. Briefly: Dendritic Cells Infection Assay (viral RNA by real time PCR). The format is cell-based. The settings on record: Dendritic cell, human primary immature monocyte derived dendritic cells, MOI 2, 24 h, dengue RNA relative to 18S rRNA. As for the experimental part: Cryopreserved human immature monocyte derived Dendritic Cells (iDC) from individual donors were obtained from Stemcell Technologies (CAT# PB-DC001F). iDC were counted and incubated at a concentration of 15,000 cells/well (96 well plate) in RPMI 1640 media containing 10% (v/v) fetal bovine serum (FBS), 1% (v/v) penicillin/streptomycin (Invitrogen™) for 48 h at 37° C. in a 90% humidified, 5% CO2 atmosphere prior to the start of the experiment.
In a 96 well flat-bottom plate, 15000 iDC from individual donors were infected with dengue virus at a multiplicity of infection (MOI) of 2 in a volume of 50 μl for 2 h. After Infection iDCs were washed and cultured in complete RPMI media in the presence of serially diluted compounds. Each virus/drug combination was tested either in duplicate or triplicate (Depending on the availability of iDC from individual donors). Plates were incubated for 24 h at 37° C. in a 90% humidified, 5% CO2 atmosphere. After 24 h cells were washed and cellular RNA were isolated. Viral RNA and endogenous 18S rRNA control (Applied Bio Systems) was quantified by a real time PCR assay. The viability of mock-infected and infected iDC were monitored at described time points using a CellTiter Glo® (promega) assay according to manufacturer's recommendation.
Cellular RNA was isolated by PerfectPure™ RNA 96 cell kit (5 PRIME) according to manufacturer's recommendation. Transcriptor First Strand cDNA Synthesis Kit (Roche) was used to generate cDNA using random hexamer primers. […] First ΔCt was calculated by subtracting the 18S rRNA CT value from the dengue RNA CT value. ΔCts from duplicate taqman assay were averaged. […] Relative quantification was calculated using the following formula. Relative quantification=2^−averageΔΔCT. […]
Background: Real-time PCR tracks product formation cycle by cycle.

Series [2] has as its system dengue. The settings on record: mouse model; cited from earlier work.
Series [3] concerns dengue. The settings on record: cited from earlier work.
For series [4], the system named is dengue. The settings on record: by inhibiting the dengue 2′-O-methyltransferase NS5 domain; cited from earlier work.

Where two headings read alike, the source gives them in different places.

Take `C[C@H](NP(=O)(OC[C@@]1(N=[N+]=[N-])O[C@@H](n2cnc3c(N)ncnc32)[C@H](O)[C@@H]1O)Oc1ccccc1)C(=O)OCc1ccccc1` (stereo partly drawn) [Compound I-2, (S)-2-{[(2R,3S,4R,5R)-5-(6-Amino-purin-9-yl)-2-azido-3,4-dihydroxy-tetrahydro-furan-2-ylmethoxy]-phenoxy-phosphorylamino}-propionic acid benzyl ester]: the IC50 in series [1] was 1.9 µM.

For the molecule `[N-]=[N+]=N[C@]1(COP(=O)(N[C@@H](Cc2ccccc2)C(=O)OCc2ccccc2)Oc2cccc3ccccc23)O[C@@H](n2ccc(=O)[nH]c2=O)[C@H](O)[C@@H]1O` (stereo partly drawn) [Compound I-9, (S)-2-[[(2R,3S,4R,5R)-2-Azido-5-(2,4-dioxo-3,4-dihydro-2H-pyrimidin-1-yl)-3,4-dihydroxy-tetrahydro-furan-2-ylmethoxy]-(naphthalen-1-yloxy)-phosphorylamino]-3-phenyl-propionic acid benzyl ester], the IC50 in series [1] was found to be 16 µM.

As for `CCOC(=O)[C@H](Cc1ccccc1)NP(=O)(OC[C@@]1(N=[N+]=[N-])O[C@@H](n2ccc(=O)[nH]c2=O)[C@H](O)[C@@H]1O)Oc1cccc2ccccc12` (stereo partly drawn) [Compound I-10, (S)-2-[[(2R,3S,4R,5R)-2-Azido-5-(2,4-dioxo-3,4-dihydro-2H-pyrimidin-1-yl)-3,4-dihydroxy-tetrahydro-furan-2-ylmethoxy]-(naphthalen-1-yloxy)-phosphorylamino]-3-phenyl-propionic acid ethyl ester], the IC50 in series [1] was determined as 15 µM.

As for `NC(=O)c1ncn([C@@H]2O[C@H](CO)[C@@H](O)[C@H]2O)n1` [Ribavirin], the protection against dengue result with dengue [2] and in the series on dengue [3] (rhesus monkey model) was “did not show protection” each time. The adverse effects entry in the series on dengue [3] (mouse model or rhesus monkey model, text does not say which) is “induced anemia and thrombocytosis”. In addition, the “activity against dengue in tissue culture” value with dengue [4] is given as “works against dengue in tissue culture”.
